Experimental data: patent US5705687A, “Neurotropic drug and method for preparation of same” (priority 1993, dated 1998)
Structures can show the parent of a compound that is named as a salt.

System: mice
Assay: Hypoxic (hypercapnic) normobaric hypoxia, lifespan
Assay type: in vivo
Conditions: for Average lifespan: control 411 ± 11.9, P < 0.001; for Lifespan, % effect: control = 100
Experimental: The antihypoxic properties of the new compounds were tested in the models of hypoxic normobaric, hemic and histotoxic hypoxia. The hypoxic (hypercapnic) normobaric hypoxia was induced by placing the mice in hermetically sealed transparent boxes, subdivided into compartments, 80 cm^3 each. The animals were observed until all respiratory movements ceased. The hemic hypoxia was induced by the intraperitoneal administration of sodium nitrite in a dose of 400 mg/kg. The hystotoxic hypoxia was induced by the intraperitoneal administration of sodium nitroprussiate, in a dose of a 20 mg/kg dosage.

CC(C)(CO)C(=O)C(=O)NCCCC(=O)O [KPA-Ca, calcium salt of ketopantoyl aminobutyrate]
Average lifespan (10 mg/kg): 558 ± 21.5 s | Lifespan, % effect (10 mg/kg): 135.8% | Average lifespan (25 mg/kg): 570 ± 17.3 s | Lifespan, % effect (25 mg/kg): 138.7% | Average lifespan (50 mg/kg): 588 ± 22.4 s | Lifespan, % effect (50 mg/kg): 143.1% | Average lifespan (100 mg/kg): 600 ± 30.7 s | Lifespan, % effect (100 mg/kg): 146% | extension of lifespan compared to control group (10 to 100 mg/kg): 35.8-46%
